Reference: ChEMBL document CHEMBL2346538, “Synthesis, cyclooxygenase inhibitory effects, and molecular modeling study of 4-aryl-5-(4-(methylsulfonyl)phenyl)-2-alkylthio and -2-alkylsulfonyl-1H-imidazole derivatives” (Bioorg Med Chem, 2013)

Each compound was assayed against T1, Prostaglandin G/H synthase 2 (Homo sapiens, UniProt P35354) (assay: Inhibition of COX2 in human blood assessed as TxB2 level after 1 hr by enzyme immunoassay).
T1 sequence (P35354 whole entry): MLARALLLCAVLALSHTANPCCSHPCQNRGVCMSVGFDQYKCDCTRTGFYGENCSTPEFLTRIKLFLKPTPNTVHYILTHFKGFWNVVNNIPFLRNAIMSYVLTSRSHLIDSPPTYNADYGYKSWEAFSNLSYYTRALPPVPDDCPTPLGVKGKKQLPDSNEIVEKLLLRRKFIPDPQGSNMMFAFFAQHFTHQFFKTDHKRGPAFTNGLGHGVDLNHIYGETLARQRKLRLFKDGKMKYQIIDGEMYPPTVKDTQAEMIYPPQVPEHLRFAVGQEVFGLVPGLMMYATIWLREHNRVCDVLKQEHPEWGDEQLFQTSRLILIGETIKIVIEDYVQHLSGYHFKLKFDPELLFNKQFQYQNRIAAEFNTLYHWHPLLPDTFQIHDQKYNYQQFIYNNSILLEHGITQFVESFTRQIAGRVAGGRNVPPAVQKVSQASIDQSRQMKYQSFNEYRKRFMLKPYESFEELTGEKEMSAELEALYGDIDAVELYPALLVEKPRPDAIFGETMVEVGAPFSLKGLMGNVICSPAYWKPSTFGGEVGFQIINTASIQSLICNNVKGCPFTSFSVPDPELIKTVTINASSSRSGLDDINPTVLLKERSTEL

Row | IC50 [µM] | SMILES
1 | 0.28 | CS(=O)(=O)c1ccc(-c2[nH]c(S(C)(=O)=O)nc2-c2ccc(F)cc2)cc1
2 | 0.07 | CSc1nc(-c2ccc(F)cc2)c(-c2ccc(S(C)(=O)=O)cc2)[nH]1
3 | 0.1 | CSc1nc(-c2ccc(Cl)cc2)c(-c2ccc(S(C)(=O)=O)cc2)[nH]1
4 | 0.28 | CS(=O)(=O)c1ccc(-c2[nH]c(S(C)(=O)=O)nc2-c2ccccc2)cc1
5 | 0.31 | CS(=O)(=O)c1ccc(-c2[nH]c(S(C)(=O)=O)nc2-c2ccc(Cl)cc2)cc1
6 | 0.05 | CCSc1nc(-c2ccccc2)c(-c2ccc(S(C)(=O)=O)cc2)[nH]1
7 | 0.08 | CCSc1nc(-c2ccc(F)cc2)c(-c2ccc(S(C)(=O)=O)cc2)[nH]1
8 | 0.11 | CCSc1nc(-c2ccc(Cl)cc2)c(-c2ccc(S(C)(=O)=O)cc2)[nH]1
9 | 0.24 | CCS(=O)(=O)c1nc(-c2ccccc2)c(-c2ccc(S(C)(=O)=O)cc2)[nH]1
10 | 0.31 | CCS(=O)(=O)c1nc(-c2ccc(F)cc2)c(-c2ccc(S(C)(=O)=O)cc2)[nH]1
11 | 0.32 | CCS(=O)(=O)c1nc(-c2ccc(Cl)cc2)c(-c2ccc(S(C)(=O)=O)cc2)[nH]1
12 | 0.06 | CSc1nc(-c2ccccc2)c(-c2ccc(S(C)(=O)=O)cc2)[nH]1
